# Reference: patent US20250235472A1, “USE OF 6-PHOSPHOGLUCONIC ACID AND DERIVATIVE THEREOF IN PREPARING MEDICAMENT FOR PREVENTING OR TREATING GLYCOMETABOLISM DISORDER DISEASES” (FUDAN UNIVERSITY, priority 2022, published 2025)
# What was measured:
# [1] = tested on: type 1 diabetes mellitus mice; assay: Insulin concentration in peripheral blood measured by ultrasensitive insulin kit; format: in vivo, mouse; settings: 200 mg/kg twice daily; fasted for 16 hours; compared with the normal saline group; FIG. 6
# Description: (§1) • 1. Blood glucose test strips and blood glucose meter, from Eli Lilly and Company, USA; • 2. C57 B6/J Female mice, from Nanjing Gem Pharmaceutical Co., Ltd.; • 3. Streptozotocin, from Sigma-Aldrich Company, USA; • 4. Ultrasensitive insulin kit, from ALPCO Company, USA; • 5. Insulin antibody, from DAKO Company, USA; • 6. Glucagon antibody, from ABCAM Company, USA; and • 7. Other reagents required for immunofluorescence assay were purchased from Shanghai Sangon Technology Co., Ltd.
# (§2) An 8-week-old C57B6/J female mouse was administered intraperitoneally with 200 mg/kg of streptozotocin solution. After 5 days of injection, the random blood glucose level of the mice was measured, mice with blood glucose levels higher than 20 mmol/L were selected and randomly divided into two groups for subsequent experiments.
# (§3) Type 1 diabetes mellitus mouse models were administered 200 mg/kg of 6-phosphogluconic acid methyl ester (compound 1-1) or physiological saline at 8 a.m. and 8 p.m. everyday. The random blood glucose level of each mouse was measured once a day. Before the end of the experiment, the mice were fasted for 16 hours, and a small amount of peripheral blood was taken from the tail vein.
# The concentration of insulin in peripheral blood of mice was measured by an ultrasensitive insulin kit.
# [2] = tested on: type 1 diabetes mellitus mice; assay: Random blood glucose level in streptozotocin type 1 diabetes mellitus mouse model; format: in vivo; settings: 200 mg/kg at 8 a.m. and 8 p.m. everyday; compared with the normal saline group; FIG. 4
# Description: as §1, §2, §3
# [3] = tested on: islet β-cells; assay: Immunofluorescence assay of regeneration of islet β-cells in type 1 diabetes mellitus mice; format: in vivo, mouse; settings: 200 mg/kg twice daily, compared with the normal saline group, FIG. 5
# Description: as §1, §2, §3
# Immunofluorescence assay was used to measure the regeneration of islet β-cells of type 1 diabetes mellitus mice.
smiles,measurement,setting,value
"COC(=O)[C@H](O)[C@@H](O)[C@H](O)[C@H](O)COP(=O)(O)O [Compound 1-1, 6-phosphogluconic acid methyl ester]",concentration of fasting insulin in peripheral blood,[1],significantly increased
same,random blood glucose level,[2],significantly reduced
same,number of islet β-cells (regeneration),[3],significantly increased
